Measurements as given in US20090305995A1, “AGONISTS AND ANTAGONISTS OF THE SOMATOSTATIN RECEPTOR” (Novartis AG, priority 2004, published 2009).
In brackets after ≈: the same amount, converted by molar mass. Read-outs that look alike come from different tables or passages of the source.

Experiments:
[1] = high throughput solubility (HT-Solubility); assay type: physicochemical; details: for water solubility (in words): see FIG. 10
[2] = logP octanol by pH-metric titration (GLpKa instrument); assay type: physicochemical; details: read-out: log P/D logP octanol
Description: In order to have a real measure of log P values for highly polar compounds, respective values for compounds 1 to 3 (C-terminal L-β-homothreonine amides) and compounds 7 to 9 (C-terminal 4-amino-5-methyl-dihydro-fuan-2-ones) are measured by employing pH-metric titration technology using a GLpKa instrument (Box et al. 2003). The high polarity of these two mixed α/β^3-tetrapeptides can be controlled by N-terminal introduction of lipophilization tags. The conjugation with fatty acid analogs leads to compounds with druglike polarity (5, 6, 10, 11, 12, 13, 14, 15, 16, 17, 18 and 26).

[3] = high throughput permeability (HT-Permeability, log Pe); assay type: physicochemical; details: PAMPA, Pe in cm/s
[4] = HT-logP o/w, high throughput assay based on artificial liquid membrane permeability; assay type: physicochemical
From the text: To be absorbed and transported by passive diffusion, drugs must be sufficiently lipophilic to penetrate the lipid cores of membranes, but not too lipophilic that they get retained and accumulated there. The lipophilictity of a compound is expressed by the octanol/water partition coefficient or distribution coefficient. A first approximation of substance polarity can either be given by computer assisted calculations giving Clog P values or by measurement of the partition coefficients in high-throughput assays (HT-log P o/w) (Faller et al., 2004; Wohnsland et al., 2001).
Octanol/water partition coefficients are measured in a high throughput assay based on artificial liquid membrane permeability. […] Still many approaches to calculate log P values are limited due to a lack of parameterization of certain fragments and fail with increasing molecular weight which implicates higher structural complexity. Similar problems and failures are observed in chromatographic determinations of log P: Peptides might undergo structural changes driven by interactions with the stationary phase. Decisive interactions between the stationary phase and the defolded analytes are therefore also based on the linear peptide sequence. For this reason measured HT-log P o/w values based on chromatographic assays employing stationary phases may lead to erroneous results.

hsst4 receptor = biological target: T1, hsst4 receptor (Homo sapiens, UniProt P31391); assay: radioligand-binding displacement assay ([125I]LTT-SRIF28), receptor expressed in CCL39 cells; details: for Kd: hsst4, [125I]LTT-SRIF28 displacement
T1 construct: expressed in transfected cells; host or cells: Chinese hamster lung fibroblast (CCL39) cells
T1 sequence (P31391 whole entry): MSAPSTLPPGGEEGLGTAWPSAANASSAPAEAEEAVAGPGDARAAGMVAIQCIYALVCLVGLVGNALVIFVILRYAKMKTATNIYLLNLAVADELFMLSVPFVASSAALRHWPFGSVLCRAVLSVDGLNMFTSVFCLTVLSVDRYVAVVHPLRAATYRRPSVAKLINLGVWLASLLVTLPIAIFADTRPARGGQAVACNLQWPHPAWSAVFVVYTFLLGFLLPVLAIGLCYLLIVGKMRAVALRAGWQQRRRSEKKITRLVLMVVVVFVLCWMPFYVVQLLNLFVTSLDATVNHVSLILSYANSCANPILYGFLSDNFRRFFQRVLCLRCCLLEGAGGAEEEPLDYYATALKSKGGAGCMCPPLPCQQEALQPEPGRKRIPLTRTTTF
Description: (§1) The generated peptides are tested for their affinity to bind to human SRIF receptors expressed in Chinese hamster lung fibroblast (CCL39) cells. This is achieved in radioligand-binding assays, a displacement experiment in which the concentration of a substance is measured which is necessary for the replacement of 50% of a specifically bound radioligand ([^125I]LTT-SRIF28). Specific binding is measured as the total binding of receptor-specific radioligand minus the amount of radioligand bound in presence of unmarked SRIF-14 (100 nM, nonspecific binding).

human SRIF receptors = assay: radioligand-binding displacement assay on the human SRIF receptor family (selectivity); details: hsst4 versus other hsst receptors
Description: as §1

[5] = pH 8, pH 8.0, read-out: HT-Permeability logPe pH 8.0 (converted)
[6] = octanol/water; read-out: HT LogP ohw
[7] = pH 1, pH 1.0, read-out: HT-Solubility pH 1.0
[8] = pH 6.8, pH 6.8, read-out: HT-Solubility pH 6.8
[9] = pH 4, pH 4.0, read-out: HT-Permeability logPe pH 4.0 (converted)
[10] = octanol/water, read-out: HT LogP ohw
[11] = pH 6.8, pH 6.8, read-out: HT-Permeability logPe pH 6.8 (converted)

Compound	HT-Solubility pH 1.0 [1]	HT-Solubility pH 6.8 [1]	logP [2]	Papp [3, 5]	logP [4, 6]	Kd (hsst4 receptor)	solubility [1, 7]	solubility [1, 8]	Papp [3, 9]	logP [4, 10]	water solubility (in words) [1]	binding affinity to hsst4 (in words) (hsst4 receptor)	Papp [3, 11]	HT LogP ohw ([4]; octanol/water)	selectivity amongst other hsst receptors (factor) (human SRIF receptors)
CC(=O)N[C@H](CC(=O)N[C@H](Cc1c[nH]c2ccccc12)C(=O)N[C@@H](CCCCN)CC(=O)N[C@H](CC(N)=O)[C@@H](C)O)Cc1ccccc1 [Compound 3]	0.0133 g 1-1	0.0133 g 1-1	0.4	–	–	–	–	–	–	–	–	–	–	–	–
CC(=O)N[C@H](CC(=O)N[C@H](Cc1c[nH]c2ccccc12)C(=O)N[C@@H](CCCCN)CC(=O)N[C@@H]1CC(=O)O[C@@H]1C)Cc1ccccc1 [Compound 8]	–	–	0.4	2 ×10⁻⁶ cm/s	3.4	–	–	–	–	–	–	–	–	–	–
C[C@H]1OC(=O)C[C@H]1NC(=O)C[C@H](CCCCN)NC(=O)[C@@H](Cc1cn(C)c2ccccc12)NC(=O)C[C@H](Cc1ccccc1)NC(=O)CCc1ccccc1 [Compound 19, Dihydrocinnemoyl-(S)-β^3-HPhe-(R)-1-Me-Trp-(S)-β^3-HLys-(R)-4-amino-(R)-5-methyl-dihydro-furan-2-one]	–	–	–	–	–	708 nM	15 µg/mL (≈ 20 µM)	15 µg/mL (≈ 20 µM)	0.1 ×10⁻⁶ cm/s	3.7	–	–	–	–	–
C[C@H]1OC(=O)C[C@H]1NC(=O)C[C@H](CCCCN)NC(=O)[C@@H](Cc1cn(C)c2ccccc12)NC(=O)C[C@H](Cc1ccccc1)NC(=O)C12CC3CC(CC(C3)C1)C2 [Compound 20, Adamantoyl-(S)-β^3-HPhe-(R)-1-Me-Trp-(S)-β^3-HLys-(R)-4-amino-(R)-5-methyl-dihydro-furan-2-one]	–	–	–	–	–	2950 nM	15.6 µg/mL (≈ 20 µM)	15.6 µg/mL (≈ 20 µM)	0.1 ×10⁻⁶ cm/s	2.9	–	–	–	–	–
CC(=O)N[C@H](CC(=O)N[C@H](Cc1cn(C)c2ccccc12)C(=O)N[C@@H](CCCCN)CC(=O)N[C@@H]1CC(=O)O[C@@H]1C)Cc1ccccc1 [Compound 21, Ac—(S)-β^3-HPhe-(R)-1-Me-Trp-(S)-β^3-HLys-(R)-4-amino-(R)-5-methyl-dihydro-furan-2-one]	–	–	–	–	–	708 to 2950 nM	13.2 µg/mL (≈ 20 µM)	13.2 µg/mL (≈ 20 µM)	0.1 ×10⁻⁶ cm/s	3.3	–	–	–	–	–
CCN(CC)C(=O)C[C@@H](NC(=O)C[C@H](CCCCN)NC(=O)[C@@H](Cc1c[nH]c2ccccc12)NC(=O)C[C@H](Cc1ccccc1)NC(C)=O)C(C)C [Compound 22, Ac—(S)-β^3-HPhe-(R)-Trp-(S)-β^3-HLys-(R)-β^3-Leu-diethyl-amide]	–	–	–	–	–	166 nM	14.4 µg/mL (≈ 20.1 µM)	14.4 µg/mL (≈ 20.1 µM)	0.1 ×10⁻⁶ cm/s	2.3	–	–	–	–	–
CC(=O)N[C@H](CC(=O)N[C@H](Cc1c[nH]c2ccccc12)C(=O)N[C@@H](CCCCN)CC(=O)N[C@H](CC(=O)N(C)CCc1ccccc1)C(C)C)Cc1ccccc1 [Compound 25, Ac—(S)-β^3-HPhe-(R)-Trp-(S)-β^3-HLys-(R)-β^3-Leu-methyl-phenethyl-amide]	–	–	–	–	–	115 nM	78 µg/mL (≈ 100 µM)	15.6 µg/mL (≈ 20 µM)	0.1 ×10⁻⁶ cm/s	3.3	–	–	–	–	–
NCCCC[C@@H](CC(=O)NC1CCCC1)NC(=O)[C@@H](Cc1c[nH]c2ccccc12)NC(=O)C[C@H](Cc1ccccc1)NC(=O)CCc1ccccc1 [Compound 32, Dihydrocinnemoyl-(S)-β^3-HPhe-(R)-Trp-(S)-β^3-HLys-cyclopentyl-amide]	–	–	–	–	–	417 nM	70.7 µg/mL (≈ 100 µM)	14.1 µg/mL (≈ 19.9 µM)	0.1 ×10⁻⁶ cm/s	4	–	–	–	–	–
CCCCCNC(=O)C[C@H](CCCCN)NC(=O)[C@@H](Cc1c[nH]c2ccccc12)NC(=O)C[C@H](Cc1ccccc1)NC(C)=O [Compound 44]	–	0.0309 g 1-1	–	25.1 ×10⁻⁶ cm/s	–	10 nM	124 µg/mL (≈ 200 µM)	–	6.31 ×10⁻⁶ cm/s	3.3	medium to good	–	–	–	–
CCC(=O)N(C)[C@H](CC(=O)N[C@H](Cc1c[nH]c2ccccc12)C(=O)N[C@@H](CCCCN)CC(=O)NC1CCCC1)Cc1ccccc1 [Compound 46, Propionyl-N-Me-(S)-β^3-HPhe-(R)-Trp-(S)-β^3-HLys-cyclopentyl-amide]	–	–	–	–	–	–	129 µg/mL (≈ 200 µM)	129 µg/mL (≈ 200 µM)	1 ×10⁻⁶ cm/s	3.3	–	lower binding affinities	–	–	–
CCCCCN(C)C(=O)C[C@H](CCCCN)NC(=O)[C@@H](Cc1c[nH]c2ccccc12)NC(=O)C[C@H](Cc1ccccc1)NC(=O)CC [Compound 48]	–	–	–	3.98 ×10⁻⁶ cm/s	–	7 nM	129 µg/mL (≈ 200 µM)	129 µg/mL (≈ 200 µM)	3.16 ×10⁻⁶ cm/s	3.4	highest solubility values	–	1.58 ×10⁻⁶ cm/s	–	–
CCCCCN(C)C(=O)C[C@H](CCCCN)NC(=O)[C@@H](Cc1c[nH]c2ccccc12)NC(=O)C[C@H](Cc1ccccc1)NC(=O)CC [Compound 49, Propionyl-(S)-β^3-HPhe-(R)-Trp-(S)-β^3-HLys-methyl-pentyl-amide]	0.1294 g 1-1	0.1294 g 1-1	2.8	–	–	–	–	–	–	–	highest solubility values	–	–	3.7	–
CCCCNC(=O)C[C@H](CCCCN)NC(=O)[C@@H](Cc1c[nH]c2ccccc12)NC(=O)C[C@H](Cc1ccccc1)NC(C)=O [Compound 52, Ace-(S)-β^3-HPhe-(R)-Trp-(S)-β^3-HLys-butyl-amide]	–	–	–	1 ×10⁻⁶ cm/s	–	16 nM	121 µg/mL (≈ 200 µM)	121 µg/mL (≈ 200 µM)	6.31 ×10⁻⁶ cm/s	3.1	medium to good	–	1.58 ×10⁻⁶ cm/s	–	–
CCCCCN(C)C(=O)C[C@H](CCCCN)NC(=O)[C@@H](Cc1c[nH]c2ccccc12)N(C)C(=O)C[C@H](Cc1ccccc1)NC(=O)CC [Compound 64]	–	–	3.1	2 ×10⁻⁶ cm/s	–	–	–	–	–	–	highest solubility values	–	6.31 ×10⁻⁶ cm/s	–	–
CCCCCCN(C)C(=O)C[C@H](CCCCN)NC(=O)[C@@H](Cc1c[nH]c2ccccc12)N(C)C(=O)C[C@H](Cc1ccccc1)NC(=O)CC [Compound 65, Propionyl-(S)-β^3-HPhe-(R)—N-Me-Trp-(S)-β^3-HLys-methyl-hexyl-amide]	–	–	–	5.01 ×10⁻⁶ cm/s	–	57 nM	135 µg/mL (≈ 200 µM)	135 µg/mL (≈ 200 µM)	12.6 ×10⁻⁶ cm/s	4.1	highest solubility values	–	2.51 ×10⁻⁶ cm/s	–	–
CCCCCN(C)C(=O)C[C@H](CCCCN)NC(=O)[C@@H](Cc1c[nH]c2ccccc12)N(Cc1ccccc1)C(=O)C[C@H](Cc1ccccc1)NC(=O)CC [Compound 66, Propionyl-(S)-β^3-HPhe-(R)—N-Benzyl-Trp-(S)-β^3-HLys-methyl-pentyl-amide]	–	–	–	3.98 ×10⁻⁶ cm/s	–	14 nM	147 µg/mL (≈ 200 µM)	14.7 µg/mL (≈ 19.9 µM)	–	5.5	does not allow for good water solubilities	–	7.94 ×10⁻⁶ cm/s	–	–
CCCCCN(C)C(=O)C[C@H](CCCCN)NC(=O)[C@@H](Cc1c[nH]c2ccccc12)N(Cc1ccccc1)C(=O)C[C@H](Cc1ccccc1)NC(=O)CC [Compound 67]	–	–	–	–	4.4	–	–	–	–	–	does not allow for good water solubilities	–	–	–	100
CCCCCNC(=O)C[C@H](CCCCN)NC(=O)[C@@H](Cc1c[nH]c2ccccc12)N(C)C(=O)C[C@H](Cc1ccccc1)NC(=O)CC [Compound 70, Propionyl-(S)-β^3-HPhe-(R)—N-Me-Trp-(S)-β^3-HLys-pentyl-amide]	–	–	–	12.6 ×10⁻⁶ cm/s	–	35 nM	129 µg/mL (≈ 200 µM)	129 µg/mL (≈ 200 µM)	5.01 ×10⁻⁶ cm/s	3.3	highest solubility values	–	3.98 ×10⁻⁶ cm/s	–	–
CN(C(=O)C[C@@H](N)Cc1ccccc1)[C@H](Cc1c[nH]c2ccccc12)C(=O)N[C@@H](CCCCN)CC(N)=O [Compound 72, (S)-β^3-HPhe-(R)—N-Me-Trp-(S)-β^3-HLys-NH2]	0.1041 g 1-1	0.1041 g 1-1	1.5	6.31 ×10⁻⁶ cm/s	–	–	–	–	5.01 ×10⁻⁶ cm/s	–	–	–	7.94 ×10⁻⁶ cm/s	–	–
